Source: the Deep4Chem optical property database
Each block holds one compound with its values, some of them ahead of it.

Assay: solvent given as SMILES

Structure (SMILES): FC(F)(F)c1ccc(-c2c3cccc4c5cccc6c(-c7ccc(C(F)(F)F)cc7)c7cccc8c9cccc2c9c(c34)c(c65)c78)cc1
- emission maximum (in Cc1ccccc1): 699 nm

Structure (SMILES): CC1(C)c2cc(C#N)ccc2-c2ccc(N3c4ccccc4Oc4ccccc43)cc21
- emission maximum (in C1CCCCC1): 433 nm
- emission maximum (in C1CCOC1): 550 nm
- emission maximum (in CC#N): 620 nm
- emission maximum (in Cc1ccccc1): 487 nm
- emission maximum (in ClC(Cl)Cl): 530 nm

Structure (SMILES): Cc1cccc(-c2nc3sc4ccccc4c3s2)c1
- emission maximum (in CS(C)=O): 412 nm

Structure (SMILES): c1ccc(N2c3ccccc3Sc3cc(-c4cccc5nc6ccccc6cc45)ccc32)cc1
- emission maximum (in C1CCOC1): 476 nm
- emission maximum (in CC#N): 504 nm
- emission maximum (in CC(C)=O): 495 nm
- emission maximum (in CC(C)OC(C)C): 546 nm
- emission maximum (in CCCCCC): 487 nm
- emission maximum (in CCCCOCCCC): 533 nm
- emission maximum (in CCN(CC)CC): 525 nm
- emission maximum (in CCOC(C)=O): 474 nm
- emission maximum (in CCOCC): 549 nm
- emission maximum (in CN(C)C=O): 495 nm
- emission maximum (in ClCCl): 483 nm

Structure (SMILES): CCC1(CC)c2cc(B(c3c(C)cc(C)cc3C)c3c(C)cc(C)cc3C)ccc2-c2ccc(N(c3ccccc3)c3ccccc3)cc21
- emission maximum (in C1CCOC1): 482 nm
- emission maximum (in CC#N): 531 nm
- emission maximum (in CC(C)=O): 499 nm
- emission maximum (in CCCCCC): 423 nm
- emission maximum (in CN(C)C=O): 532 nm
- emission maximum (in Cc1ccccc1): 448 nm
- emission maximum (in ClC(Cl)Cl): 461 nm

Structure (SMILES): COc1ccc2c(c1)c1c(c3cc(OC)ccc32)=[N+]2C(=C(c3c(C)cc(C)cc3C)c3cc4c5cc(OC)ccc5c5ccc(OC)cc5c4n3[B-]2(F)F)C=1
- emission maximum (in C1CCCCC1): 710 nm
- emission maximum (in C1CCOC1): 713 nm
- emission maximum (in CC#N): 711 nm
- emission maximum (in Cc1ccccc1): 717 nm
- emission maximum (in ClCCl): 713 nm

Structure (SMILES): CN(C)c1ccc(C2=Nc3sc4c(F)c(F)c(F)c(F)c4[n+]3[B-](F)(F)O2)cc1
- emission maximum (in C1CCOC1): 492 nm
- emission maximum (in CC#N): 503 nm
- emission maximum (in Cc1ccccc1): 464 nm
- emission maximum (in ClCCl): 483 nm

Structure (SMILES): Clc1cnc2nn3ccccc3c2n1
- emission maximum (in C1CCOC1): 448 nm

Structure (SMILES): CCCCCCCCOc1cc(/C=C/c2cc(OCCCCCCCC)c(/C=C/c3cc(OCCCCCCCC)c(/C=C/c4ccncc4)cc3OCCCCCCCC)cc2OCCCCCCCC)c(OCCCCCCCC)cc1/C=C/c1ccncc1
- emission maximum (in ClCCl): 570 nm

Structure (SMILES): CCOC(=O)CSc1nc2c(c(C#N)c1C#N)CCCC2
- emission maximum (in c1ccccc1): 407 nm

Structure (SMILES): CN(C)c1ccc(-c2cc(-c3ccc(C#N)cc3)nn2C)cc1
- emission maximum (in C1CCCCC1): 363 nm
- emission maximum (in CC#N): 595 nm
- emission maximum (in CCOC(C)=O): 481 nm
- emission maximum (in CCOCC): 429 nm
- emission maximum (in CN(C)C=O): 590 nm
- emission maximum (in Cc1ccccc1): 410 nm
- emission maximum (in ClCCl): 499 nm

Structure (SMILES): CC[N+]1(CC)CN2C(=N1)C(C(=O)O)=Cc1cc(C)c(C)cc12
- emission maximum (in O): 466 nm

Structure (SMILES): CC1(C)c2ccccc2N(c2ccc(-c3nc([C@]45CC6CC(C[C@@H](C6)C4)C5)nc([C@]45C[C@H]6C[C@@H](C[C@H](C6)C4)C5)n3)cc2)c2ccccc21
- emission maximum (in CC(C)(C)c1ccc(-n2c3ccc([Si](c4ccccc4)(c4ccccc4)c4ccccc4)cc3c3cc([Si](c4ccccc4)(c4ccccc4)c4ccccc4)ccc32)cc1): 450 nm
- emission maximum (in Cc1ccccc1): 469.63 nm

Structure (SMILES): O=c1c(Nc2ccccc2)c([O-])c1=[NH+]c1ccccc1
- emission maximum (in C1CCOC1): 477 nm
- emission maximum (in CC#N): 496 nm
- emission maximum (in CC(C)=O): 490 nm
- emission maximum (in CCO): 492 nm
- emission maximum (in CCOCC): 484 nm
- emission maximum (in CN1CCCC1=O): 495 nm
- emission maximum (in CN(C)C=O): 502 nm
- emission maximum (in CO): 498 nm
- emission maximum (in CS(C)=O): 504 nm
- emission maximum (in O): 504 nm

Structure (SMILES): CCCCCCCC[Si](C)(C)c1cccc2ccccc12
- emission maximum (in C1CCCCC1): 329 nm

Structure (SMILES): CCc1c(C)c2n(c1C)[B-](F)(F)[N+]1=C(NCc3ccc(OC)cc3)C=CC1=C2C
- emission maximum (in CC#N): 546 nm
- emission maximum (in CCCCCC): 554 nm
- emission maximum (in CCOC(C)=O): 549 nm
- emission maximum (in CO): 548 nm
- emission maximum (in ClCCl): 551 nm

Structure (SMILES): CCC1(CC)c2cc(N(C)C)ccc2-c2ccc(C(F)(F)F)cc21
- emission maximum (in C1CCCCC1): 360 nm
- emission maximum (in CC#N): 337 nm
- emission maximum (in CCO): 388 nm
- emission maximum (in CCOCC): 373 nm
- emission maximum (in CS(C)=O): 414 nm
- emission maximum (in ClCCl): 387 nm
- emission maximum (in c1ccccc1): 374 nm

Structure (SMILES): N#Cc1cccc(C#N)c1-n1c2ccccc2c2cc(-c3ccc4c(c3)c3ccccc3n4-c3c(C#N)cccc3C#N)ccc21
- emission maximum (in Cc1ccccc1): 488 nm
- emission maximum (in O=P(c1ccccc1)(c1ccccc1)c1ccccc1Oc1ccccc1P(=O)(c1ccccc1)c1ccccc1): 488 nm

Structure (SMILES): CC(C)(C)c1ccc(C2=C(c3ccc(-n4c5ccc(C(C)(C)C)cc5c5cc(C(C)(C)C)ccc54)cc3)S(=O)(=O)c3c2sc(-c2ccc(-n4c5ccc(C(C)(C)C)cc5c5cc(C(C)(C)C)ccc54)cc2)c3-c2ccc(C(C)(C)C)cc2)cc1
- emission maximum (in C1CCOC1): 555 nm

Structure (SMILES): c1ccc2c(c1)c1ccccc1n2-c1ccc2c(c1)c1ccccc1n2-c1ccc(-n2c3ccccc3c3cc(-n4c5ccccc5c5ccccc54)ccc32)cc1
- emission maximum (in C1CCOC1): 372 nm
- emission maximum (in CC(C)=O): 379 nm
- emission maximum (in Cc1ccccc1): 372 nm
- emission maximum (in ClCCl): 383 nm

Structure (SMILES): c1ccc2cc3c4c(ccc3cc2c1)-c1cccc2cccc-4c12
- emission maximum (in CCCCCCC): 520 nm

Structure (SMILES): N#Cc1c(-c2ccccc2)cc(-c2ccccc2)[nH]c1=S
- emission maximum (in C1CCCCC1): 510 nm
- emission maximum (in C1COCCO1): 512 nm
- emission maximum (in CC#N): 495 nm
- emission maximum (in CCCCO): 506 nm
- emission maximum (in CCCO): 493 nm
- emission maximum (in CCO): 465 nm
- emission maximum (in CCOC(C)=O): 502 nm
- emission maximum (in CCOCC): 518 nm
- emission maximum (in CN(C)C=O): 505 nm
- emission maximum (in ClC(Cl)(Cl)Cl): 510 nm

Structure (SMILES): N#Cc1c(-n2c3ccccc3c3ccccc32)c(-n2c3ccccc3c3ccccc32)cc(-n2c3ccccc3c3ccccc32)c1-n1c2ccccc2c2ccccc21
- emission maximum (in CCCCCC): 439.08 nm
- emission maximum (in CCO): 468.52 nm
- emission maximum (in Cc1ccccc1): 442 nm
- emission maximum (in ClCCl): 456.64 nm

Structure (SMILES): COC(=O)c1ccc(/C=C/C(F)(F)F)c(N)c1
- emission maximum (in C1CCOC1): 447 nm

Structure (SMILES): CC/[NH+]=c1\cc2oc3cc(NCCOC(=O)C(NC(=O)OC(C)(C)C)C(C)C)c4ccccc4c3nc-2cc1C (stereo not given)
- emission maximum (in CCO): 652 nm
- emission maximum (in O): 652 nm

Structure (SMILES): CCC1=C(C)C2=Cc3c4ccccc4c4n3[B-](c3ccncc3)(Oc3ccccc3-4)[N+]2=C1C (stereo not given)
- emission maximum (in CC#N): 633 nm
- emission maximum (in CCCCCC): 636 nm
- emission maximum (in Cc1ccccc1): 639 nm
- emission maximum (in ClCCl): 639 nm

Structure (SMILES): CCCCCCCCCCCCN(CCCCCCCCCCCC)c1ccc2c(c1)oc(=O)c1c(=O)oc3ccccc3c12
- emission maximum (in CS(C)=O): 562 nm
- emission maximum (in ClCCl): 528 nm

Structure (SMILES): F[B-]1(F)n2c(c3cccc4cccc2c43)=Nc2cccc(Cl)[n+]21
- emission maximum (in C1CCOC1): 503 nm
- emission maximum (in CC#N): 502 nm
- emission maximum (in CCCCCC): 498 nm
- emission maximum (in Cc1ccccc1): 503 nm
- emission maximum (in ClCCl): 526 nm

Structure (SMILES): Cc1cc(C)n2c1C=C1c3ccccc3C(c3[nH]c4ccccc4c3C)=[N+]1[B-]2(F)F
- emission maximum (in C1CCOC1): 628 nm
- emission maximum (in CC#N): 623 nm
- emission maximum (in CCCCCC): 626 nm
- emission maximum (in CO): 624 nm
- emission maximum (in Cc1ccccc1): 636 nm
- emission maximum (in ClCCl): 631 nm

Structure (SMILES): c1cc2c3c(cccc3c1)NC(c1ccc3ccc4cccc5ccc1c3c45)N2
- emission maximum (in CC#N): 458 nm
- emission maximum (in CO): 450 nm
- emission maximum (in CS(C)=O): 420 nm
- emission maximum (in Cc1ccccc1): 502 nm

Second part, the compound after the results:

- emission maximum (in ClC(Cl)Cl): 501 nm
Structure (SMILES): CCCCCCN1C(=O)c2cccc3cc(/N=C\c4ccc5c(c4)c4ccccc4n5CC)cc(c23)C1=O

- emission maximum (in CS(C)=O): 379.1 nm
Structure (SMILES): c1ccc2[nH]c(-c3cc(-c4nc5ccccc5[nH]4)cc(-c4nc5ccccc5[nH]4)c3)nc2c1

- emission maximum (in ClCCl): 614 nm
Structure (SMILES): N#Cc1cc(/C=C/c2ccc(N(c3ccccc3)c3ccccc3)cc2)ccc1/C=C/c1ccc(/C=C/c2ccc(N(c3ccccc3)c3ccccc3)cc2)cc1C#N

- emission maximum (in ClC(Cl)Cl): 429 nm
Structure (SMILES): CN(C)c1ccc(-c2ccc(-c3cc(-c4ccccc4)c(-c4ccccc4)c(-c4ccccc4)c3-c3ccccc3)nc2)cc1

- emission maximum (in CCO): 619 nm
Structure (SMILES): Nc1ccc2nc3c4ccccc4c(=[NH2+])cc-3oc2c1

- emission maximum (in ClCCl): 408 nm
Structure (SMILES): N#Cc1ccc(-n2c(-c3ccc(-c4ccc(N(c5ccccc5)c5ccccc5)cc4)s3)nc3c4ccccc4c4ccccc4c32)c2ccccc12

- emission maximum (in CN(C)C=O): 431 nm
Structure (SMILES): CCN(CC)c1ccc(-c2nc(Oc3ccc(-c4nc5ccccc5[nH]4)cc3)nc(Oc3ccc(-c4nc5ccccc5[nH]4)cc3)n2)cc1

- emission maximum (in CC#N): 579 nm
Structure (SMILES): CC1=C(C#Cc2ccccc2)C2=Cc3c(C#Cc4ccccc4)c(C)c(C)n3[B-](F)(F)[N+]2=C1C

- emission maximum (in C1CCCCC1): 535 nm
- emission maximum (in ClC(Cl)Cl): 727 nm
Structure (SMILES): CN(C)c1ccc2nc(-c3ccc(C=C4C(=O)c5ccccc5C4=O)cc3)sc2c1

- emission maximum (in ClC(Cl)Cl): 461 nm
Structure (SMILES): Fc1ccc(C2=NC(c3ccccc3)C(N(c3ccccc3)c3ccccc3)S2)cc1 (stereo not given)

- emission maximum (in ClC(Cl)Cl): 466 nm
Structure (SMILES): CC(C)(C)c1ccc2c(c1)c1cc(C(C)(C)C)ccc1n2-c1ccc2oc3nc4oc5cc(C(F)(F)F)ccc5c4cc3c2c1

- emission maximum (in CC1CCCCC1): 325 nm
- emission maximum (in CC#N): 360 nm
- emission maximum (in CO): 348 nm
Structure (SMILES): COC(=O)C(NC(=O)OC(C)(C)C)c1ccc2oc(-c3cccc(Oc4ccccc4)c3)nc2c1 (stereo not given)

- emission maximum (in CCO): 446 nm
Structure (SMILES): CC(C)(C)OC(=O)NCCCC(=O)OCc1ccc2c3cccc4cccc(c5cccc1c52)c43

- emission maximum (in C1CCOC1): 469 nm
Structure (SMILES): CC1(C)c2ccccc2-c2ccc(N(c3ccccc3)c3ccc4c(c3)C(C)(C)c3cc(-c5cc6ccccc6c6c5oc5ccccc56)ccc3-4)cc21

- emission maximum (in ClCCl): 355 nm
Structure (SMILES): c1ccc2c(c1)c1ccccc1c1ccccc21

- emission maximum (in C1CCCCC1): 415 nm
- emission maximum (in CC#N): 413 nm
Structure (SMILES): C[Si](C)(c1ccc2cc3ccccc3cc2c1)[Si](C)(C)c1ccc2cc3ccccc3cc2c1

- emission maximum (in ClCCl): 515 nm
Structure (SMILES): CN(C)c1ccc(/C=C/c2cnc(C#Cc3ccc(C#N)cc3)o2)cc1

- emission maximum (in ClC(Cl)Cl): 552 nm
Structure (SMILES): C(=N\c1ccc(-c2cn3nc(-c4cccs4)sc3n2)cc1)/c1ccc(N(c2ccccc2)c2ccccc2)cc1

- emission maximum (in ClCCl): 645 nm
Structure (SMILES): c1ccc(C2=C3C4=C(C5=[N+]3[B-]3(Oc6ccccc65)Oc5ccccc5-c5c6c(c2n53)C2CCC6CC2)C2CCC4CC2)cc1 (stereo not given)

- emission maximum (in ClCCl): 405 nm
Structure (SMILES): COc1cc2c(cc1OC)C1=C[C@H](c3ccc(Cl)cc3)C3(C(C#N)=C(C#N)N1CC2)c1ccccc1-c1ccccc13
